≈ marks a conversion by molar mass, not a printed value.
Columns and labels:
[1] = target: B.s. pol IIIC (Bacillus subtilis, UniProt P13267); assay: biochemical; type: biochemical
Procedure: (§1) The ability of a test compound to inhibit the activity of DNA pol IIIC or pol IIIE enzymes can be tested by using a DNA polymerase assay as described, for example, in Barnes and Brown, Nucl. […] This rapid screening method can use natural or recombinant DNA pol III enzymes in a standard DNA polymerase activity assay. By including a test compound in a side-by-side assay with a control, the effect of the test compound on polymerase activity can be assessed.
(§2) DNA pol III activity was assayed as described in Barnes et al., Nucl.
(§3) Purified pol IIIC or pol IIIE was added to a buffered solution containing Mg^2+, DTT, glycerol, nicked calf thymus DNA, saturating concentrations of dATP, dCTP, dTTP and [^3H]-dTTP. Reaction mixtures were incubated at 30° C. for 10 min, quenched and filtered, and radioactivity in the acid-insoluble material measured by scintillation counting. Experiments were done in triplicate. Inhibitors were assayed by addition of several dilutions of a stock solution of inhibitor (DMSO or water, depending on solubility) before enzyme addition. […] The truncated assay, i.e., exclusion of the competitive substrate dGTP allows for the direct determination of apparent inhibitor constants (Ki) in this assay system.

[2] = target: B.s. pol IIIE (Bacillus subtilis, UniProt O34623); assay: biochemical; type: biochemical
Procedure: as §1, §2, §3

[3] = target: E.c. pol IIIE (Escherichia coli, UniProt P10443); assay: biochemical
Procedure: as §1, §2, §3

[4] = system: MRSA (B42876); assay: Inhibition of bacterial growth (agar plate MIC), MRSA (B42876); type: cell-based, methicillin-resistant S.a.; details: Staphylococcus aureus, MRSA; agar plates, 37° C., 24 hours
Procedure: (§4) Antimicrobial efficacy may be determined by standard methods of microbial culture in growth medium or on plates of agar supplemented with appropriate growth media. For example, microbes, e.g., mycoplasmata or Gram-positive or Gram-negative bacteria, are grown in the presence of serial dilutions of compounds in an appropriate vehicle, and, after a suitable period of growth, the microbial density is measured by visual or instrumental means. The concentration of compound at which no growth occurs is the minimum inhibitory concentration (MIC) of the compound. Test compounds with an appropriate level of growth inhibition are good candidate therapeutics for further evaluation.
(§5) Each compound was assayed against a panel of Gram-positive Bacilli, Enterococci, and Staphylococci, and Gram-negative Escherichia coli, grown in appropriate plate media solidified with 1.3% agar-agar. […] One tenth mL of diluted bacteria containing 500-1000 colony-forming units (CFU) were plated and spread, and the plates were incubated at 37° C. for 24 hours. MIC (minimum inhibitory concentration) was equivalent to the lowest concentration at which growth, i.e. colony formation, was not observed.

[5] = system: Enterococcus fecalis; assay: Inhibition of bacterial growth (agar plate MIC), E. fecalis; type: cell-based; details: Enterococcus; agar plates, 37° C., 24 hours
Procedure: as §4, §5

[6] = system: Enterococcus fecium; assay: Inhibition of bacterial growth (agar plate MIC), E. fecium; type: cell-based; details: Enterococcus; agar plates, 37° C., 24 hours
Procedure: as §4, §5

[7] = in vitro; type: in vitro ADME; details: human, Caco-2
From the text: Table 2 summarizes the results of cell membrane permeability assays of representative compounds of the invention. The assay utilizes CaCo2 cell culture monolayers, described by Artursson and Kalsson, Biochem. Biophys. Res.

[8] = system: Bacillus subtilis; assay: Inhibition of bacterial growth (agar plate MIC), B.s.; type: cell-based; details: Bacillus subtilis; agar plates, 37° C., 24 hours
Procedure: as §4, §5

E.c. pol IIIE, sequence (P10443 whole entry): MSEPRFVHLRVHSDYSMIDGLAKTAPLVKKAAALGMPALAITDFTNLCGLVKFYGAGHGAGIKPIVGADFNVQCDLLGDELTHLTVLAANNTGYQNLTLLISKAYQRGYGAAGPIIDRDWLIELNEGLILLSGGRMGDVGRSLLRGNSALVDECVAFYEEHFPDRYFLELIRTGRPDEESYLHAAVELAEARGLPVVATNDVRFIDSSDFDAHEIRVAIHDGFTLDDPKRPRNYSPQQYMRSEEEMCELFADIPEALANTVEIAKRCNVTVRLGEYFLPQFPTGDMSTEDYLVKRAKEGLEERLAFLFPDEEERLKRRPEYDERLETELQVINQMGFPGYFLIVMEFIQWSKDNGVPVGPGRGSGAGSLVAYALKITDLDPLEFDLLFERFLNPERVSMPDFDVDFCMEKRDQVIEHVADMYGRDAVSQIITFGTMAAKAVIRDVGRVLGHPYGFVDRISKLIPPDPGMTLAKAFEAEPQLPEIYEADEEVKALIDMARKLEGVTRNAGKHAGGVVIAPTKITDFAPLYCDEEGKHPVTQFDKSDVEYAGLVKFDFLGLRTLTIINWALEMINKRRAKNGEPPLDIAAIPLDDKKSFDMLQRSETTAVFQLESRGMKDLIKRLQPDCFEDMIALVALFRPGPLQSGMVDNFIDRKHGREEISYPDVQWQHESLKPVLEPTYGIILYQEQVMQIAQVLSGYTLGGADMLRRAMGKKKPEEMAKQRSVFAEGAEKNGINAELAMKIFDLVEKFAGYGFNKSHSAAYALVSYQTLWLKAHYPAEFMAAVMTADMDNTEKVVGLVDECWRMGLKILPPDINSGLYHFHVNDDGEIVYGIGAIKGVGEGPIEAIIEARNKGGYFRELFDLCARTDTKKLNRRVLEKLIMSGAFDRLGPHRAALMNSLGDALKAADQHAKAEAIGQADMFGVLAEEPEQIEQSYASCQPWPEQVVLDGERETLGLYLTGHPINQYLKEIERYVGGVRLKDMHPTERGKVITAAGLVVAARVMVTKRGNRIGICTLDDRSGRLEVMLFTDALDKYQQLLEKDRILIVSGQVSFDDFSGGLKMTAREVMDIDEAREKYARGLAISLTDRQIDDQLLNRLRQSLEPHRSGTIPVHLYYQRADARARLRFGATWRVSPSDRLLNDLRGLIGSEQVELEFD
B.s. pol IIIC, sequence (P13267 whole entry): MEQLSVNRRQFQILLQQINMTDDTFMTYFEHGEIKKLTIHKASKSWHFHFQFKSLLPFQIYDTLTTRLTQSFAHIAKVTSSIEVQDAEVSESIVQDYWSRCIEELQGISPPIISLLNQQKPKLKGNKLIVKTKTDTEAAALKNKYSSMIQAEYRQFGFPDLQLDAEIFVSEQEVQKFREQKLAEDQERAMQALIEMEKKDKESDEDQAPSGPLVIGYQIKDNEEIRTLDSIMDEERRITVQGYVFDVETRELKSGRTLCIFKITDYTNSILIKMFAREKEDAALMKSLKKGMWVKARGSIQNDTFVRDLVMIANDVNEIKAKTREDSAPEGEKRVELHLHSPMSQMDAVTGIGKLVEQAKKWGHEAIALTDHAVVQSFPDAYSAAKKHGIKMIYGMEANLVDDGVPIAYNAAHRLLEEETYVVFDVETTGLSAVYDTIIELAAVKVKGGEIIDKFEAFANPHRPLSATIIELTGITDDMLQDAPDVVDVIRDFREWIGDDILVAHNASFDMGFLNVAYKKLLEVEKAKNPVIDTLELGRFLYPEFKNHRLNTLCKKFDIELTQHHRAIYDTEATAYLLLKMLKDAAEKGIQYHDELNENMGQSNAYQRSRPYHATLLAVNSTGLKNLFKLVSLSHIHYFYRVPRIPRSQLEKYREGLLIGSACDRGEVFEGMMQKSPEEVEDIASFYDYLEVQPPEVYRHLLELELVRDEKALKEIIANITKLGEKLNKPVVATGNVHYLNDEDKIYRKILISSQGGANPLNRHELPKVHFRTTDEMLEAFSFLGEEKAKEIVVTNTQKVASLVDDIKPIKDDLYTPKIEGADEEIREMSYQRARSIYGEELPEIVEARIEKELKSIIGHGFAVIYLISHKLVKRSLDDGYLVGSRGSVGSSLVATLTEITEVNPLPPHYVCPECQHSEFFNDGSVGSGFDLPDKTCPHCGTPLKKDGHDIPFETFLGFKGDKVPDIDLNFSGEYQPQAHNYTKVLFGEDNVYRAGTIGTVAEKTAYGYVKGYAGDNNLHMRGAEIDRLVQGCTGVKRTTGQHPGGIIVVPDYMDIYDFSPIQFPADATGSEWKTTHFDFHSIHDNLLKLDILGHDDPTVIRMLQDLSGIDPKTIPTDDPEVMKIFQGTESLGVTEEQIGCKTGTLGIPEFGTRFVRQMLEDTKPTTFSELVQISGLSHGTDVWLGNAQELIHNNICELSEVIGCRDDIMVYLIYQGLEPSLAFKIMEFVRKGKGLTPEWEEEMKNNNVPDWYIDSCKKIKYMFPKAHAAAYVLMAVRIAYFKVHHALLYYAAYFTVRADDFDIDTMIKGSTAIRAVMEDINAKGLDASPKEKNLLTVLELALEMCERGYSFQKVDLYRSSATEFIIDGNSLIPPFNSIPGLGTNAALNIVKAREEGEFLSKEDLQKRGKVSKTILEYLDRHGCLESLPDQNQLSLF
B.s. pol IIIE, sequence (O34623 whole entry): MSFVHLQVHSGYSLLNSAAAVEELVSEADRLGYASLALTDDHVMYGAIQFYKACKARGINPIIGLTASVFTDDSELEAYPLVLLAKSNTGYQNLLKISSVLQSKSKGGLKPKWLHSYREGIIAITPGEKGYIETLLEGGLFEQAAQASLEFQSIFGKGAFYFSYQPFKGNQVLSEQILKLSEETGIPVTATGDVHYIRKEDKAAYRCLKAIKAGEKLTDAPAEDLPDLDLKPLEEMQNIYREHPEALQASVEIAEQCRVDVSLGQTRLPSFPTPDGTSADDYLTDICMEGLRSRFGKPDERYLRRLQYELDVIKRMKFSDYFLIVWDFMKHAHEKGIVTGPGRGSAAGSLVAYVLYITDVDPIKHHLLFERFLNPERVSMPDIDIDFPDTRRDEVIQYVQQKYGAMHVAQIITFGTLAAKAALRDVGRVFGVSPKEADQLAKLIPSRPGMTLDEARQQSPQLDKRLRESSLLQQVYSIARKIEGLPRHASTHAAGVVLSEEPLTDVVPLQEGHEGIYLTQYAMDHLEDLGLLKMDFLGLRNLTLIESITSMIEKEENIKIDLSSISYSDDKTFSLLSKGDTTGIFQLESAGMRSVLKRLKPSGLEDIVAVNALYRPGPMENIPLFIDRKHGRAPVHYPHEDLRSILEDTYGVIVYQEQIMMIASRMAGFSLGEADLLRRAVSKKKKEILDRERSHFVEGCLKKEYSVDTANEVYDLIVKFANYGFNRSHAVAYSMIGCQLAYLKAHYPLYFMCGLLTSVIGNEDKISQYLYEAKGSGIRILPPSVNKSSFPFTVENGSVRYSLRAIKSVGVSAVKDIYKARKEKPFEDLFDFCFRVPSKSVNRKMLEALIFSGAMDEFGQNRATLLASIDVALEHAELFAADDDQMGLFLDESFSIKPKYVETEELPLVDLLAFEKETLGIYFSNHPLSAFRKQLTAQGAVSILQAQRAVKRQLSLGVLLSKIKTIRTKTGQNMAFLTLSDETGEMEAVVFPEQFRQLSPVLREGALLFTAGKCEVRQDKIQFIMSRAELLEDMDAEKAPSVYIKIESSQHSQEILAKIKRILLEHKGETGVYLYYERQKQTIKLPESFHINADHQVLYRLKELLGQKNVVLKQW

| SMILES | Ki [1] [nM] | Ki [2] [nM] | Ki [3] [nM] | MIC [4] [µg/mL] | MIC [5] [µg/mL] | MIC [6] [µg/mL] | Papp [7] [×10⁻⁶ cm/s] | Ki, E.c. pol IIIE ([3]; truncated assay without dGTP, apparent Ki) | MIC [8] [µg/mL] |
| --- | --- | --- | --- | --- | --- | --- | --- | --- | --- |
| COCCCCCn1cnc2cc(NCc3ccc(Cl)c(Cl)c3)[nH]c(=O)c21 [Compound 3, 2-(3,4-Dichlorobenzylamino)-6-oxo-7-(5-methoxypentyl)-3-deazapurine] | 160 | 420 | 81000 | 2.5 (≈ 6.11 µM) | 5 (≈ 12.2 µM) | 1.25 (≈ 3.05 µM) | 13.8 | – | – |
| CCc1cc(Nc2cc3ncn(CCCCCOC)c3c(=O)[nH]2)ccc1C [Compound 17, 2-(3-Ethyl-4-methylphenylamino)-6-oxo-7-(5-methoxypentyl)-3-deazapurine] | 690 | 490000 | – | 2.5 (≈ 6.78 µM) | > 80 | 2.5 (≈ 6.78 µM) | 39.6 | inact | 1.25 (≈ 3.39 µM) |

— patent publication US6926763B2, “Purine and isosteric antibacterial compounds” (GLSynthesis, Inc., priority 2002, dated 2005)
